Measurements taken from patent publication US10098581B2, “Integrated electrical profiling system for measuring leukocytes activation from whole blood” (Massachusetts Institute of Technology, priority 2014, dated 2018).

Key:
Assay type in all cases: cell-based
human granulocytes [1] = experiment: IDS mechanism study of neutrophil activation with chemical inhibitors; settings: 10 MHz; 0.5 μM fMLP, 2 μM PMA; 20 minutes stimulation
Protocol: This experiment focuses on the mechanism study of electrical changes during neutrophil activation. The mechanism study aims to help understand which aspect of neutrophil activation iso-dielectric separation is sensitive to. Different inhibitors were added to reduce the effect of membrane ruffling, reactive oxygen species (ROS) generation, and degranulation before activation to decouple the effect of the three factors. FIG. 19 is a schematic diagram illustrating aspects of activation of a neutrophil in response to a stimulus. In membrane ruffling, volume changes occur with advanced activation. Membrane roughness can increase the membrane capacitance. In Reactive Oxygen Species (ROS) generation, cytoplasm conductivity increases. NADPH oxidase is a major cause of the ROS generation. Degranulation occurs during phagocytosis, and lowers cytoplasmic ionic content. The experiment uses chemical inhibitors to block specific aspects of activation to determine the dominant causes of electrical changes. FIG. 20A is a summary of the procedure. Human granulocytes are first isolated from whole blood with a density gradient method, and then were split into six aliquots for different treatment. CytB, CytB+Jasp, CytB+DPI were added for inhibiting membrane ruffling, membrane ruffling and degranulation, membrane ruffling and ROS generation, respectively. The inhibition treatment lasted for ten minutes. […]

human granulocytes [2] = experiment: Flow cytometry and functional assays of PMA-activated granulocytes; settings: different doses of PMA
Protocol: 10 ml samples of heparinized human blood were obtained from healthy donors (Blood Research Components, LLC). Two aliquots of 5 ml of blood were set in 3 ml of Mono-Poly Resolving Medium (MP Biosciences) and the samples were spun in a free hanging centrifuge at 400 cfg for 40 min. The resulting layered samples contained a band of granulocytes that were recovered and triple washed with a PBS solution. Finally, the cells were resuspended in a PBS solution (PBS, 1% BSA, 1 u Heparin).
(§1) Human granulocytes were activated with different concentrations of PMA (Phorbol 12-Myristate 13-Acetate, Sigma Aldrich) in a PBS solution with Mg^++ and Ca^++. To activate the cells, a 1:1 solution of suspended cells was mixed with PMA buffer and the resulting suspension was incubated for 20 min at room temperature.
Flow cytometry (FC) was performed with a BD Accuri (Becton Dickinson) flow cytometer with a 488 nm and a 670 nm emitter. Granulocytes were gated based on side and forward scatter and stained with anti-human CD11b-PE, anti-human CD66b-PerCP-CY5.5 and anti-human CD18-FITC (Becton Dickinson) as activation indicators. Mouse samples were stained using anti-mouse CD-18 and anti-mouse Ly6G as an activation marker.
The first goal was to confirm that IDS is able to discern IDP differences in activated and non-activated human granulocytes extracted from freshly collected blood. […]

human granulocytes [3] = experiment: Single-sided iso-dielectric separation (IDS): IDP distributions of PMA-treated vs non-treated granulocytes
Source text: In IDS, a heterogeneous population of cells suspended in high conductivity media was loaded into a microfluidic chip. Other inlets containing intermediate and low conductivity media provided a parallel laminar co-flow. This configuration generated a conductivity gradient perpendicular to the main microfluidic channel flow. The channel also had slanted planar electrodes patterned at the bottom (single-sided IDS) or top and bottom (double-sided IDS). An AC electric field applied to the electrodes generated a DEP barrier that guided the cells across the conductivity gradient. Cells escaped the DEP barrier at their isodielectric position (IDP), which is the position where they are at dielectric equilibrium with the surrounding medium. Cells with different effective permittivity (or effective conductivity) escaped at a different IDP resulting in a transverse spatial distribution of cells. A CCD camera near the end of the channel took videos of the cells. Finally, image-processing software detected these cells and computed the resulting IDP distribution (see FIGS. 4a-4d).
To determine the IDP different populations, suspensions (2×10^6 cells/ml) in PBS buffer with a conductivity of 1.2 S/m (PBS, 1% BSA, 1 u Heparin) were used. For the intermediate and low conductivity media, this buffer was mixed with an isotonic sucrose solution to achieve an intermediate conductivity of 0.8 S/m and a low conductivity of 0.4 S/m.
A function generator (Agilent 33220A) and an amplifier applied a 10 Vpp AC field with the same amplitude across all frequencies. A CCD camera at the end of the main channel imaged fluorescently labeled cells flowing across the field of view. An image detection script analyzed the videos to detect cells in each frame and determine the centroid of each cell. The same script generated cell position distributions that correspond to the resulting IDP distribution.
as §1
Using a single-sided IDS platform, the IDP distributions of granulocytes treated with 1 μM PMA and a control population of non-treated granulocytes were examined. A 10 Vpp AC voltage was applied to the electrodes with frequencies ranging from 0.5 MHz to 15 MHz. Cells were loaded at 0.4 μl/min and the intermediate and low conductivity buffer at 0.55 μl/min (1.5 μl/min total). To determine the IDP distributions for each frequency, the IDP distributions of at least 1000 cells were recorded, which required an acquisition of about 1.5 min. […]

neutrophils = experiment: IDP evolution of PMA-treated neutrophils over treatment time; settings: normalized IDP vs PMA treatment time in minutes (FIG. 16B)
Source text: In another embodiment according to the invention, isodielectric position dynamics can be used to assist with diagnostics. In particular, activation of leukocytes can be tracked with DCFH-DA oxidation. FIG. 16A is a graph of respiratory burst (DCFH-DA oxidation), showing DCF median intensity on the vertical axis, versus PMA (Phorbol 12-Myristate 13-Acetate, Sigma Aldrich) treatment time in minutes (horizontal axis), at different concentrations of PMA. FIG. 16B is a graph of iso-dielectric point (IDP) evolution of PMA-treated neutrophils, showing normalized IDP on the vertical axis versus PMA treatment time in minutes on the horizontal axis.

| SMILES | IDP shift of stimulated granulocytes (indicating activation) (human granulocytes [1]) | levels of reactive oxygen species (human granulocytes [2]) | CD11b and CD18 expression (human granulocytes [2]; 20 min at room temperature) | IDP distribution of treated granulocytes vs non-treated control (human granulocytes [3]; 1 μM PMA, as frequency increases (0.5-15 MHz), 10 Vpp) | peak ROC area-under-the-curve (AUC), IDP as classification threshold (human granulocytes [3]; 1 μM PMA, frequencies 10-15 MHz) | activation state of neutrophils (IDP profiling) (human granulocytes [3]; 1000 nM PMA) | ROC area under the curve, IDP as classification criteria (human granulocytes [3]; PMA treated vs control, above 5 MHz) | IDP of treated neutrophils versus treatment time (neutrophils) |
| --- | --- | --- | --- | --- | --- | --- | --- | --- |
| CSCC[C@H](NC=O)C(=O)N[C@@H](CC(C)C)C(=O)N[C@@H](Cc1ccccc1)C(=O)O [fMLP, N-Formylmethionyl-leucyl-phenylalanine] | shifted to the left | – | – | – | – | – | – | – |
| CCCCCCCCCCCCCC(=O)O[C@@H]1[C@@H](C)[C@@]2(O)[C@@H](C=C(CO)C[C@]3(O)C(=O)C(C)=C[C@@H]23)[C@@H]2C(C)(C)[C@]12OC(C)=O [PMA, Phorbol 12-Myristate 13-Acetate] | shifted to the left | increased | increased | displaced towards higher IDP | 0.62 | activated | > 0.6 | changes over time |
